The results in this text go back to patent US20070048247A1, “Deodorizing tablets” (Kimberly-Clark Worldwide, Inc., priority 2005, published 2007).

Data set [1] in a line: Example 3 urine odor panel ranking. Also noted: species or system Human. The conditions noted are these: for Average Urine Odor Ranking (with statistical corrections), Avg. Score: ignoring statistical anomalies. The procedure: (§1) The effectiveness of various quinone compounds in reducing urine odor was compared. […] Human female urine was initially collected and pooled by a nurse on staff at Kimberly-Clark Corporation. The pooled urine was added to mason jars in 50-milliliter aliquots using an automated pipette aid. […] The mason jars were placed in an incubator overnight at 37° C.
(§2) In addition to ranking the jars from least to most malodorous (on a scale from 1 to 7, with 7 being the most malodors), panelists were also asked to judge whether there were secondary (non-urine) odors present and, if so, the extent that the secondary odors were unpleasant (on a scale from 1 to 5, with 5 being extremely unpleasant).
In this assessment, panelists were given instructions to rank the least malodorous jar as “1” and the most malodorous jar as “10,” remaining free to rank the other jars between 2-9.

Data set [2] in a line: Solubility of powder in urine.
Data set [3] in a line: Example 3 secondary (non-urine) odor ranking. Also noted: species or system Human. The procedure: as §1, §2
A short description of data set [4]: Example 6 urine odor panel ranking. Conditions: as Example 5, 1 least, 8 most urine malodor. Further details: species or system Human. From the text: The quinone compounds chosen for this example were Alizarin Blue Black B, Remazol Brilliant Blue R and Acid Green 25. The results are set forth below in Tables 19 and 20.
Data set [5] can be described thus: Example 5 urine odor panel ranking. Also noted: species or system Human. The procedure: Assessments were conducted the following day by asking panelists to rate each jar from 1 (least urine malodor) to 8 (most urine malodor). The results are set forth below in Tables 15-18.
Data set [6] can be described thus: Example 7 urine odor panel ranking (16 millimolar). Also noted: species or system Human. Conditions: 16 millimolar in urine, 1 least, 10 most urine malodor. The procedure: The effectiveness of various quinone compounds in reducing urine odor was compared. […] Human female urine was initially collected and pooled at Kimberly-Clark Corporation. The pooled urine was added to mason jars in 50-milliliter aliquots using an automated pipette aid. Powders of the aforementioned quinone compounds (commercially available from Sigma-Aldrich Chemical Co., Inc. of St. Louis, Missouri and Noveon Hilton Davis, Inc. of Cincinnati, Ohio) were weighed and placed into the mason jars containing 50 milliliters of urine so that the final concentration of the powder was 16 millimolar (equivalent to 1 wt. %). The mason jars were placed in an incubator overnight at 37° C. The experimental setup is set forth in more detail below in Table 21.
Jars were wrapped in foil and placed in an incubator at 37° C. overnight. The jars were divided into four groups (C-F), each sharing the same control jar of urine alone (no powder). Assessments were conducted the following day by asking panelists to rate each jar from 1 (least urine malodor) to 10 (most urine malodor).

The nature of data set [7]: Example 1 urine odor panel ranking. Further details: species or system Human. Conditions: 8 millimolar in urine. The text has this:
Human female urine was initially collected and pooled by a nurse on staff at Kimberly-Clark Corporation. […] Powders of Acid Blue 129 and Acid Green 27 (commercially available from Sigma-Aldrich Chemical Co., Inc. of St. Louis, Mo.), as well as D&C Green No. 5 (commercially available from Noveon Hilton Davis, Inc. of Cincinnati, Ohio), were then weighed and placed into the mason jars containing 50 milliliters of urine so that the final concentration of the powder was 8 millimolar (equivalent to 0.5 wt. %). […] A score of “10” was assigned to the most malodorous jar and a score of “1” was assigned to the least malodorous jar.

Where [8] appears, read: Example 3 first grouping, 8 millimolar in urine, scale 1 to 7, 7 most malodorous.
Where [9] appears, read: Example 3 second grouping, 8 millimolar in urine, 1 least malodorous.
[10] abbreviates: Example 3 top performers of both groupings, after 24 hours, 1 least, 10 most malodorous.
Where [11] appears, read: Example 3 top performers, after 24 hours.
The mark [12] stands for this setting: Example 3 top performers, after 24 hours, 1 least, 10 most malodorous.
[13] abbreviates: Example 5, 8 mM in 50 milliliters of urine.
[14] abbreviates: Example 7, 16 mM in 50 milliliters of urine.
The mark [15] stands for this setting: Example 5 Group A, 8 mM in urine, 1 least, 8 most urine malodor.
[16] abbreviates: after 6 hours, 1 least, 10 most malodorous.
The mark [17] stands for this setting: after 24 hours, 1 least, 10 most malodorous.
Setting [18] is: Example 5 Group B, 8 mM in urine, 1 least, 8 most urine malodor.

With `Cc1ccc(Nc2ccc(Nc3ccc(C)cc3S(=O)(=O)[O-])c3c2C(=O)c2ccccc2C3=O)c(S(=O)(=O)[O-])c1.[Na+].[Na+]` [Acid Green 25], in data set [1] (Example 3 first grouping), the “urine odor reduction (in words)” value is listed as “functioned effectively to reduce odor”. Moreover, in data set [1] (setting [8]), the “Average Urine Odor Ranking, Avg. Score” value stood at 2.2; the “Urine Odor Ranking 1 (number of panelists)” value was determined as 3; the “Urine Odor Ranking 2 (number of panelists)” value is reported as 1; the “Urine Odor Ranking 6 (number of panelists)” value was 1. Besides, in data set [1] (setting [9]), the “Average Urine Odor Ranking, Avg. Score” value came out at 4.4. Besides, in data set [1] (setting [10]), the “Urine Odor Ranking 1 (number of panelists)” value turned out to be 3, the “Urine Odor Ranking 2 (number of panelists)” value came to 1 and the “Urine Odor Ranking 10 (number of panelists)” value is on record as 1. In data set [1] (setting [11]), the “odor reduction (in words)” value is given as “achieved the best odor reduction” and the “Average Urine Odor Ranking (with statistical corrections), Avg. Score” value came to 1.3. For the same compound, the “Average Urine Odor Ranking, Avg. Score” value in data set [1] (setting [12]) was 3.0. For the same compound, the “Soluble?” value in data set [2] (setting [13]) is on record as “Yes”. Besides, the “Soluble?” value in data set [2] (setting [14]) is on record as “Mostly”. Moreover, the “secondary odor (in words)” value in data set [3] (Example 3 first grouping) is reported as “not found to be unpleasant by most panelists”. In data set [4], the “Average Rankings, Avg. Score” value amounted to 2.25; the “Urine Odor Ranking 1 (number of panelists)” value is recorded as 2; the “Urine Odor Ranking 2 (number of panelists)” value turned out to be 1; the “Urine Odor Ranking 5 (number of panelists)” value is listed as 1. In data set [5] (setting [15]), the “Average Rankings (Group A), Avg. Score” value is recorded as 3; the “Urine Odor Ranking 2 (number of panelists)” value amounted to 1; the “Urine Odor Ranking 3 (number of panelists)” value was found to be 2; the “Urine Odor Ranking 4 (number of panelists)” value turned out to be 1. Besides, in data set [6] (Example 7 Group F), the “Average Rankings (Group F), Avg. Score” value was determined as 3.2; the “Urine Odor Ranking 1 (number of panelists)” value came to 2; the “Urine Odor Ranking 2 (number of panelists)” value came out at 1; the “Urine Odor Ranking 6 (number of panelists)” value is recorded as 2.
For the compound `Cc1cc(C)c(Nc2cc(S(=O)(=O)[O-])c(N)c3c2C(=O)c2ccccc2C3=O)c(C)c1.[Na+]` [Acid Blue 129], in data set [1] (setting [9]), the “Average Urine Odor Ranking, Avg. Score” value stood at 1.8; the “Urine Odor Ranking 1 (number of panelists)” value is listed as 3; the “Urine Odor Ranking 3 (number of panelists)” value turned out to be 2. In data set [1] (setting [10]), the “Urine Odor Ranking 1 (number of panelists)” value is 1, the “Urine Odor Ranking 3 (number of panelists)” value came to 1, the “Urine Odor Ranking 4 (number of panelists)” value was 1 and the “Urine Odor Ranking 5 (number of panelists)” value is given as 1. Besides, the “Urine Odor Ranking 6 (number of panelists)” value in data set [1] (setting [10]) was found to be 1. Also, in data set [1] (setting [11]), the “odor reduction (in words)” value is given as “achieved the best odor reduction” and the “Average Urine Odor Ranking (with statistical corrections), Avg. Score” value was 3.8. The “Average Urine Odor Ranking, Avg. Score” value in data set [1] (setting [12]) is reported as 3.8. Also, the “Soluble?” value in data set [2] (setting [13]) is on record as “Mostly”. The “Soluble?” value in data set [2] (setting [14]) was “Somewhat”. For the same compound, the “reducing urine malodor (in words)” value in data set [7] is given as “functioned effectively in reducing urine malodor”. In data set [7] (setting [16]), the “Avg. Ranking (odor)” value was 1.6, the “Ranking 1 (number of panelists)” value was 4 and the “Ranking 4 (number of panelists)” value is 1. For the same compound, in data set [7] (setting [17]), the “Avg. Ranking (odor)” value was 1.3, the “Ranking 1 (number of panelists)” value turned out to be 5 and the “Ranking 3 (number of panelists)” value is listed as 1. The “odor reduction performance (in words)” value in data set [5] (Example 5 Group B) was “performed well”. For the same compound, in data set [5] (setting [18]), the “Average Rankings (Group B), Avg. Score” value was 5; the “Urine Odor Ranking 2 (number of panelists)” value is on record as 1; the “Urine Odor Ranking 5 (number of panelists)” value came to 1; the “Urine Odor Ranking 6 (number of panelists)” value is 1. Besides, the “Urine Odor Ranking 7 (number of panelists)” value in data set [5] (setting [18]) amounted to 1. In addition, in data set [6] (Example 7 Group E), the “Average Rankings (Group E), Avg. Score” value is 6; the “Urine Odor Ranking 1 (number of panelists)” value was 1; the “Urine Odor Ranking 4 (number of panelists)” value was 1; the “Urine Odor Ranking 7 (number of panelists)” value came to 1. Besides, the “Urine Odor Ranking 9 (number of panelists)” value in data set [6] (Example 7 Group E) is reported as 2.
On to `O=C1c2ccccc2C(=O)c2c(Nc3cccc(S(=O)(=O)[O-])c3)c(Nc3ccc(S(=O)(=O)[O-])cc3)cc(O)c21.[Na+].[Na+]` [Alizarin Blue Black B, Mordant Black 13 (Alizarin Blue Black B)], for which, in data set [2] (setting [13]), the “Soluble?” value was “Yes”. Further, in data set [2] (setting [14]), the “Soluble?” value is listed as “Yes”. Further, in data set [4], the “Average Rankings, Avg. Score” value came to 2.75; the “Urine Odor Ranking 1 (number of panelists)” value was found to be 1; the “Urine Odor Ranking 3 (number of panelists)” value amounted to 2; the “Urine Odor Ranking 4 (number of panelists)” value is on record as 1. Also, in data set [5] (Example 5 Group A), the “odor reduction performance (in words)” value is “performed best”. Moreover, in data set [5] (setting [15]), the “Average Rankings (Group A), Avg. Score” value came to 1 and the “Urine Odor Ranking 1 (number of panelists)” value was determined as 4. Further, in data set [6] (Example 7 Group C), the “Average Rankings (Group C), Avg. Score” value was 3; the “Urine Odor Ranking 1 (number of panelists)” value was determined as 1; the “Urine Odor Ranking 3 (number of panelists)” value is listed as 2; the “Urine Odor Ranking 4 (number of panelists)” value is 2.
Regarding `O=C1C=C(S(=O)(=O)[O-])C(=O)c2ccccc21.[K+]` [1,4 Naphthaquinone, 1,4 naphthaquinone-2-sulfonic acid potassium salt], in data set [1] (setting [9]), the “Average Urine Odor Ranking, Avg. Score” value is 1.8; the “Urine Odor Ranking 1 (number of panelists)” value came to 2; the “Urine Odor Ranking 2 (number of panelists)” value is listed as 2; the “Urine Odor Ranking 3 (number of panelists)” value is 1. For the same compound, in data set [3] (Example 3 second grouping), the “secondary odor (in words)” value is “unpleasant secondary odor”.
Turning to `CCN(Cc1cccc(S(=O)(=O)[O-])c1)c1ccc(C(=C2C=CC(=[N+](CC)Cc3cccc(S(=O)(=O)[O-])c3)C=C2)c2ccccc2S(=O)(=O)[O-])cc1.[Na+].[Na+]` [FD&C Blue No. 1, FD&C Blue No.1, reference compound], in data set [1] (setting [8]), the “Average Urine Odor Ranking, Avg. Score” value is listed as 4.8; the “Urine Odor Ranking 4 (number of panelists)” value came out at 1; the “Urine Odor Ranking 5 (number of panelists)” value was determined as 4. Moreover, in data set [3] (Example 3 first grouping, individual panelist scores, scale 1 to 5, 5 extremely unpleasant), the “Secondary Odor Ranking” value was 3.
For `O=C1C=C(S(=O)(=O)[O-])c2ccccc2C1=O.[K+]` [1,2 Naphthaquinone], the “urine odor reduction (in words)” value in data set [1] (Example 3 first grouping) is on record as “effectively reduced urine odor”. In data set [1] (setting [8]), the “Average Urine Odor Ranking, Avg. Score” value came to 3.8; the “Urine Odor Ranking 2 (number of panelists)” value came to 1; the “Urine Odor Ranking 3 (number of panelists)” value was found to be 2; the “Urine Odor Ranking 4 (number of panelists)” value is 1. The “Urine Odor Ranking 7 (number of panelists)” value in data set [1] (setting [8]) was 1. In addition, the “secondary odor (in words)” value in data set [3] (Example 3 first grouping) is “unpleasant secondary smell was found to be present”.
`Nc1cc(S(=O)(=O)[O-])c(O)c2c1C(=O)c1c(O)c(S(=O)(=O)[O-])cc(N)c1C2=O.[Na+].[Na+]` [Acid Blue 45]: in data set [1] (setting [9]), the “Average Urine Odor Ranking, Avg. Score” value is listed as 3.4; the “Urine Odor Ranking 2 (number of panelists)” value was determined as 1; the “Urine Odor Ranking 3 (number of panelists)” value turned out to be 2; the “Urine Odor Ranking 4 (number of panelists)” value turned out to be 1. In addition, the “Urine Odor Ranking 5 (number of panelists)” value in data set [1] (setting [9]) was 1. Moreover, the “Soluble?” value in data set [2] (setting [13]) is reported as “Yes”. Besides, the “Soluble?” value in data set [2] (setting [14]) is “Mostly”. In data set [4], the “Average Rankings, Avg. Score” value came out at 5.5; the “Urine Odor Ranking 2 (number of panelists)” value worked out at 1; the “Urine Odor Ranking 6 (number of panelists)” value was 1; the “Urine Odor Ranking 7 (number of panelists)” value was found to be 2. The “odor reduction performance (in words)” value in data set [5] (Example 5 Group B) is “performed well”. Also, in data set [5] (setting [18]), the “Average Rankings (Group B), Avg. Score” value is 3.75; the “Urine Odor Ranking 1 (number of panelists)” value is 2; the “Urine Odor Ranking 6 (number of panelists)” value was determined as 1; the “Urine Odor Ranking 7 (number of panelists)” value was found to be 1. Besides, in data set [6] (Example 7 Group E), the “Average Rankings (Group E), Avg. Score” value amounted to 6.4; the “Urine Odor Ranking 3 (number of panelists)” value came out at 2; the “Urine Odor Ranking 8 (number of panelists)” value is listed as 2; the “Urine Odor Ranking 10 (number of panelists)” value came to 1.
